Data from patent US7959907B2, “Method of treating cancer by combination therapy using TNF and alpha-galactosylceramide” (VIB VZW, priority 2007, dated 2011).

Assays:
B16B16 melanoma = experiment: Tumour experiment: subcutaneously growing B16B16 melanoma in C57BL/6 mice, tumor size index; format: in vivo
Method: Female C57BL/6J@RJ mice were purchased from Janvier (Le Genest-Saint-Isle, France). The animals were housed in 14-10 hours light/dark cycles in a temperature-controlled, air-conditioned room, and received food and water ad libitum. The mice were used for the tumour experiment at the age of 8-12 weeks.
The melanin-positive melanoma B16B16 cells (Hart et al., 1979) were cultured in RPMI 1640 (Invitrogen) supplemented with 10% FCS, 50 IU/ml penicillin G, 50 μg/ml streptomycin sulphate, 2 mM L-glutamine and 0.4 mM Na-pyruvate. For tumor inoculation cells were detached from the culture flask by a short EDTA treatment, washed three times in endotoxin-free sterile PBS (Sigma), and resuspended in PBS at 6×10^6 cells/ml.
On day 0, the mice were inoculated with 6×10^5 cells subcutaneously in the back just in front of the hind limb. Treatment was started when the tumor size index (TSI), i.e., the product of the largest perpendicular diameters in cm, reached 0.5 (day 13). Treatment with hTNF (30 μg/injection) or low dose mTNF (0.7 μg/injection) was given daily for 9 or 10 consecutive days via paralesional injection (subcutaneous injection near the site of the tumor, but outside the nodule). Alpha-GalCer (1-2 μg/injection) was injected intraperitoneally. […] TSI and body weight were measured every day prior to injection and every two or three days when treatment was finished.

cancer = settings: clinical studies; cited from earlier work

## CCCCCCCCCCCCCCCCCCCCCCCCCC(=O)N[C@@H](CO[C@H]1O[C@H](CO)[C@H](O)[C@H](O)[C@H]1O)[C@H](O)[C@H](O)CCCCCCCCCCCCCC [alpha-GalCer, (2S 3S, 4R)-1-O-(alfa-D-galactopyranosyl)-N-hexacosanoyl-2-amino-1,3,4-octadecanetriol]
B16B16 melanoma; larger scale experiment, n=7, alpha-GalCer 1 μg/mouse pre-treatment, hTNF 30 μg/injection, low dose mTNF 0.7 μg/injection
  effect on tumour growth: small inhibiting effect
B16B16 melanoma; pilot experiment, alpha-GalCer 2 μg/mouse i.p., hTNF 30 μg/injection paralesional daily, single agents alone
  effect on tumor growth: no effect on tumor growth
cancer
  clinical anti-tumour effects: no clinical anti-tumour effects were recorded
